Results published in patent publication US7153851B2, “10-(3-cyclopropylaminomethyl-1-pyrrolidinyl)pyridobenzoxazinecarboxylic acid derivative effective against resistant bacterium” (Kyorin Pharmaceutical Co., Ltd., priority 2002, dated 2006).
≈ marks a conversion by molar mass, not a printed value.

Assays:
Experiment in all cases: In vitro antibacterial activity (MIC), agar dilution method according to NCCLS
Assay type in all cases: cell-based
E. faecalis IID682 = test system: E. faecalis IID682; design: unit not given here; details: Muller-Hinton agar medium containing 5% defibrinated equine blood
S. pneumoniae Type III = details: Muller-Hinton agar medium containing 5% defibrinated equine blood
[1] = test system: S. aureus MR5867 (methicillin-resistant S. aureus); details: Muller-Hinton agar medium
Method: (§1) The in vitro antibacterial activity (as measured by the minimum inhibitory concentration (MIC)) was determined for each of the compounds of the present invention by the agar dilution method according to NCCLS (National Committee for Clinical Laboratory Standard (1997), Methods for Dilution Antibacterial Susceptibility Tests for Bacteria that grow Aerobically-Forth Edition: Approved Standard m7-A4. NCCLS, Villanova, Pa.), which involved the use of Muller-Hinton agar medium.

S. aureus Smith = details: Muller-Hinton agar medium
Method: as §1

[2] = test system: S. aureus MS16401 (quinolone-resistant S. aureus); details: Muller-Hinton agar medium
Method: as §1

SMILES | MIC (E. faecalis IID682) | MIC (S. pneumoniae Type III) | MIC [1] | MIC (S. aureus Smith) | MIC [2] [µg/mL]
C[C@@H]1CN(c2c(F)cc3c(=O)c(C(=O)O)cn4c3c2OC[C@@H]4C)C[C@H]1CNC1CC1 (relative stereo) [Example 10, (3S)-10-(trans-3-cyclopropylaminomethyl-4-methyl-1-pyrrolidinyl)-9-fluoro-2,3-dihydro-3-methyl-7-oxo-7H-pyrido[1,2,3-d,e][1,4]benzoxazine-6-carboxylic acid] | 0.125 | 0.031 | 0.016 | 0.016 | 63 (≈ 152 µM)
O=C(O)c1cn2c3c(c(N4CC[C@@H](CNC5CC5)C4)c(F)cc3c1=O)OC[C@@H]2CF [Example 1, (3R)-10-[(3S)-3-cyclopropylaminomethyl-1-pyrrolidinyl]-9-fluoro-3-fluoromethyl-2,3-dihydro-7-oxo-7H-pyrido[1,2,3-d,e][1,4]benzoxazine-6-carboxylic acid] | 0.063 | 0.032 | 0.016 | 0.016 | 125 (≈ 298 µM)
O=C(O)c1cn2c3c(c(N4CC[C@H](CNC5CC5)C4)c(F)cc3c1=O)OC[C@@H]2CF [Example 2, (3R)-10-[(3R)-3-cyclopropylaminomethyl-1-pyrrolidinyl]-9-fluoro-3-fluoromethyl-2,3-dihydro-7-oxo-7H-pyrido[1,2,3-d,e][1,4]benzoxazine-6-carboxylic acid] | 0.25 | 0.125 | 0.016 | 0.031 | 250 (≈ 596 µM)
CC(=O)OC[C@@H]1COc2c(N3CC[C@@H](CNC4CC4)C3)c(F)cc3c(=O)c(C(=O)O)cn1c23 [Example 5, (3S)-3-acetoxymethyl-10-[(3S)-3-cyclopropylaminomethyl-1-pyrrolidinyl]-9-fluoro-2,3-dihydro-7-oxo-7H-pyrido[1,2,3-d,e][1,4]benzoxazine-6-carboxylic acid] | 0.25 | 0.125 | 0.25 | 0.25 | 4000 (≈ 8710 µM)
O=C(O)c1cn2c3c(c(N4CC[C@@H](CNC5CC5)C4)c(F)cc3c1=O)OC[C@@H]2CO [Example 6, (3S)-10-[(3S)-3-cyclopropylaminomethyl-1-pyrrolidinyl]-9-fluoro-2,3-dihydro-3-hydroxymethyl-7-oxo-7H-pyrido[1,2,3-d,e][1,4]benzoxazine-6-carboxylic acid] | 0.25 | 0.125 | 0.25 | 0.25 | 4000 (≈ 9580 µM)
C[C@@H]1CN(c2c(F)cc3c(=O)c(C(=O)O)cn4c3c2OC[C@@H]4C)C[C@H]1CNC1CC1 [Example 12, (3S)-10-[(3R,4S)-3-cyclopropylaminomethyl-4-methyl-1-pyrrolidinyl]-9-fluoro-2,3-dihydro-3-methyl-7-oxo-7H-pyrido[1,2,3-d,e][1,4]benzoxazine-6-carboxylic acid] | 0.25 | 0.063 | 0.016 | 0.016 | 63 (≈ 152 µM)
C[C@@H]1CN(c2c(F)cc3c(=O)c(C(=O)O)cn4c3c2OC[C@@H]4CF)C[C@@H]1CNC1CC1 [Example 18, (3R)-10-[(3S,4S)-3-cyclopropylaminomethyl-4-methyl-1-pyrrolidinyl]-9-fluoro-3-fluoromethyl-2,3-dihydro-7-oxo-7H-pyrido[1,2,3-d,e][1,4]benzoxazine-6-carboxylic acid] | 0.063 | 0.016 | 0.016 | 0.008 | 63 (≈ 145 µM)
O=C(O)c1cn2c3c(c(N4C[C@H](CNC5CC5)[C@H](F)C4)c(F)cc3c1=O)OC[C@@H]2CF [Example 20, (3R)-10-[(3S,4S)-3-cyclopropylaminomethyl-4-fluoro-1-pyrrolidinyl]-9-fluoro-3-fluoromethyl-2,3-dihydro-7-oxo-7H-pyrido[1,2,3-d.e][1,4]benzoxazine-6-carboxylic acid] | 0.063 | 0.016 | 0.016 | 0.008 | 63 (≈ 144 µM)
C[C@H]1COc2c(N3C[C@H](NC4CC4)[C@@H](F)C3)c(F)cc3c(=O)c(C(=O)O)cn1c23 [Example 21, (3S)-10-[(3S,4S)-3-cyclopropylamino-4-fluoro-1-pyrrolidinyl]-9-fluoro-2,3-dihydro-3-methyl-7-oxo-7H-pyrido[1,2,3-d.e][1,4]benzoxazine-6-carboxylic acid] | 0.063 | 0.016 | 0.016 | 0.016 | 31 (≈ 76.5 µM)

Continued, values first:

MIC (E. faecalis IID682) | MIC (S. pneumoniae Type III) | MIC [1] | MIC (S. aureus Smith) | MIC [2] [µg/mL] | SMILES
0.125 | 0.031 | 0.008 | 0.008 | 31 (≈ 74.6 µM) | C[C@H]1CN(c2c(F)cc3c(=O)c(C(=O)O)cn4c3c2OC[C@@H]4C)C[C@H]1CNC1CC1 (relative stereo) [Example 13, (3S)-10-(cis-3-cyclopropylaminomethyl-4-methyl-1-pyrrolidinyl)-9-fluoro-2,3-dihydro-3-methyl-7-oxo-7H-pyrido[1,2,3-d,e][1,4]benzoxazine-6-carboxylic acid]
0.063 | 0.032 | 0.016 | 0.016 | 63 (≈ 145 µM) | C[C@@H]1CN(c2c(F)cc3c(=O)c(C(=O)O)cn4c3c2OC[C@@H]4CF)C[C@H]1CNC1CC1 (relative stereo) [Example 16, (3R)-10-(trans-3-cyclopropylaminomethyl-4-methyl-1-pyrrolidinyl)-9-fluoro-3-fluoromethyl-2,3-dihydro-7-oxo-7H-pyrido[1,2,3-d,e][1,4]benzoxazine-6-carboxylic acid]
0.25 | 0.125 | 0.016 | 0.016 | 125 (≈ 266 µM) | C[C@H]1COc2c(N3C[C@@H](CNC4CC4)[C@H](C(F)(F)F)C3)c(F)cc3c(=O)c(C(=O)O)cn1c23 (relative stereo) [Example 19, (3S)-10-(trans-3-cyclopropylaminomethyl-4-trifluoromethyl-1-pyrrolidinyl)-9-fluoro-2,3-dihydro-3-methyl-7-oxo-7H-pyrido[1,2,3-d,e][1,4]benzoxazine-6-carboxylic acid]
0.25 | 0.125 | 0.031 | 0.031 | 500 (≈ 1160 µM) | COC[C@H]1COc2c(N3CC[C@@H](CNC4CC4)C3)c(F)cc3c(=O)c(C(=O)O)cn1c23 [Example 4, (3S)-10-[(3S)-3-cyclopropylaminomethyl-1-pyrrolidinyl]-9-fluoro-2,3-dihydro-3-methoxymethyl-1-oxo-7H-pyrido[1,2,3-d,e][1,4]benzoxazine-6-carboxylic acid]
0.125 | 0.016 | ≦0.008 mg/mL | ≦0.008 mg/mL | 63 (≈ 158 µM) | C=C1COc2c(N3CC[C@@H](CNC4CC4)C3)c(F)cc3c(=O)c(C(=O)O)cn1c23 [Example 7, 10-[(3S)-3-cyclopropylaminomethyl-1-pyrrolidinyl]-9-fluoro-2,3-dihydro-3-methylene-7-oxo-7H-pyrido[1,2,3-d,e][1,4]benzoxazine-6-carboxylic acid]
0.063 | 0.016 | 0.008 | 0.008 | 31 (≈ 74.6 µM) | C[C@H]1CN(c2c(F)cc3c(=O)c(C(=O)O)cn4c3c2OC[C@@H]4C)C[C@@H]1CNC1CC1 [Example 11, (3S)-10-[(3S,4R)-3-cyclopropylaminomethyl-4-methyl-1-pyrrolidinyl]-9-fluoro-2,3-dihydro-3-methyl-7-oxo-7H-pyrido[1,2,3-d,e][1,4]benzoxazine-6-carboxylic acid]
0.063 | ≦0.008 mg/mL | 0.008 | 0.008 | 31 (≈ 74.6 µM) | C[C@@H]1CN(c2c(F)cc3c(=O)c(C(=O)O)cn4c3c2OC[C@@H]4C)C[C@@H]1CNC1CC1 [Example 14, (3S)-10-[(3S,4S)-3-cyclopropylaminomethyl-4-methyl-1-pyrrolidinyl]-9-fluoro-2,3-dihydro-3-methyl-7-oxo-7H-pyrido[1,2,3-d,e][1,4]benzoxazine-6-carboxylic acid]
0.125 | 0.063 | 0.031 | 0.031 | 63 (≈ 152 µM) | C[C@H]1CN(c2c(F)cc3c(=O)c(C(=O)O)cn4c3c2OC[C@@H]4C)C[C@H]1CNC1CC1 [Example 15, (3S)-10-[(3R,4R)-3-cyclopropylaminomethyl-4-methyl-1-pyrrolidinyl]-9-fluoro-2,3-dihydro-3-methyl-7-oxo-7H-pyrido[1,2,3-d,e][1,4]benzoxazine-6-carboxylic acid]
0.063 | 0.016 | 0.008 | 0.008 | 63 (≈ 145 µM) | C[C@H]1CN(c2c(F)cc3c(=O)c(C(=O)O)cn4c3c2OC[C@@H]4CF)C[C@@H]1CNC1CC1 [Example 17, (3R)-10-[(3S,4R)-3-cyclopropylaminomethyl-4-methyl-1-pyrrolidinyl]-9-fluoro-3-fluoromethyl-2,3-dihydro-7-oxo-7H-pyrido[1,2,3-d,e][1,4]benzoxazine-6-carboxylic acid]
